These results are taken from publication PMC8564765 (Journal of medicinal chemistry, 2021).

For this experiment, the system named is MPO activity. Briefly: MR imaging of CFA-induced subcutaneous inflammation. As to conditions: wild-type mice, 0.3 mmol/kg. The class given is in vivo.

For `CNC[C@H](O)[C@@H](O)[C@H](O)[C@H](O)CO.O=C([O-])CN1CCN(CC(=O)[O-])CCN(CC(=O)O)CCN(CC(=O)[O-])CC1.[Gd+3]` [DOTA-Gd, gadoterate meglumine], the “Course of CNR over 60 min” value is “decreased rapidly over time”.
